± gives the expanded uncertainty stated by the source.

The results in this text go back to the NIST ThermoML archive (doi:10.1016/j.tca.2016.01.009).

For the series the following is noted: Crystal; visual observation.

Regarding `OCc1cn(Cc2ccccc2)nn1` [(1-benzyl-1H-1,2,3-triazol-4-yl)methanol], the Normal melting temperature was 78.70 ± 0.48 °C.
